Measured values reported in patent US20240117402A1, “METHODS FOR (POLY) PEPTIDE TANDEM LIGATION AND CYCLIZATION” (Nanyang Technological University, priority 2021, published 2024).
Read-outs that look alike come from different tables or passages of the source. Where a SMILES comes first, the peptide text is derived from it. Where no end group is shown, it is not given here.

Tests used:
VyPAL2 = assay: VyPAL2-catalyzed peptide cyclization (substrate screen, pH scan, kinetics); type: biochemical, Viola yedoensis
Method: (§1) FIG. 9. Screening of P1′-Asp peptides for cyclization by A) VyPAL2, B) butelase-1 and C) OaAEP1b. Quantitative summary of reaction yields of the reaction mixtures. For each reaction, 25 nM of the enzyme and 5 μM of the peptide substrate (21a-21i) were mixed and reacted at pH 4.5, 25° C. for 60 min. The positive control peptide 21j was performed at the same conditions except at pH 7.4. Average yields and SDs were calculated from experiments performed in triplicate. The amino acid sequence of the peptides used are set forth in SEQ ID Nos. 15-24.
(§2) FIG. 10. Ligation activity of three different ligases under different pH and substrate. Cyclization activity of A) VyPAL2, B) Butelase-1 or C) OaAEP1b towards substrate 21e-DSL and 21j-NGL; Fold difference was calculated using the cyclization rate of 21j-NGL divided by that of 21e-DSL. All the results were the average reaction rate at different pH in triplicate experiments based on MALDI-TOF analysis. Light grey text in the “Fold difference” axis marks to the maximum fold difference.
(§3) FIG. 11. Enzymatic activity of three different ligases on the cyclization reaction of P1-Asp peptide 21e-DSL or 21a-DGL and P1-Asn-peptide 21j-NGL. A) Scheme of PAL-mediated P1-Asp peptide cyclization; B) Enzymatic kinetics of VyPAL2 in cyclizing 21e-DSL at pH 4.5; C) Enzymatic kinetics of VyPAL2 in cyclizing 21e-DSL at pH 7.0; D) Enzymatic kinetics of OaAEP1b in cyclizing 21a-DGL at pH 5.5; E) Enzymatic kinetics of Butelase-1 in cyclizing 21e-DSL at pH 4.5. F) Scheme of PAL-mediated cyclization of peptide 21j-NGL; G). Enzymatic kinetics of butelase-1 in cyclizing […] at pH 4.5; H)
(§4) Enzymatic kinetics of VyPAL2 in cyclizing 21j-NSL at pH 4.5; I) Enzymatic kinetics of butelase-1 in cyclizing 21j-NSL at pH 7.4; J) Enzymatic kinetics of OaAEP1b in cyclizing 21j-NSL at pH 7.0. Sequences of peptides used are set forth in SEQ ID Nos. 15, 19, 24.
(§5) PALs recognize a tripeptide motif Asx-P1′-P2′ in the acyl donor substrate for their catalyzed ligation reactions. Because the formation of the acyl-enzyme thioester intermediate is the rate-limiting step, the leaving group P1′-P2′ also plays an important role in determining the catalytic kinetics of a particular 40 PAL-mediated reaction. Previous studies have determined Leu as a preferred P2′ residue. To identify the most favorable P1′ residues for PAL-catalyzed Asp-ligation, a panel of peptides (peptide 21a-21j) with C-terminal DXL and N-terminal GI motifs was synthesized and cyclization reactions performed. Peptide 21j with a C-terminal NGL, a P1-Asn peptide favored by VyPAL2, was used for comparison with the P1-Asp peptides 21a-21i. […] Meanwhile, the P1′ substrate specificities of the two other ligases - Butelase-1 and OaAEP1b - were also evaluated by using the same substrates 21a-21j.
scanning experiment using the two peptides 21e and 21j was performed. Cyclization reactions were conducted by mixing 5 μM of peptide 21e or 50 μM of 21j with 25 nM of VyPAL2 over a pH range of 4.0 to 7.4. Results confirmed that the optimum pH for the cyclization of the P1-Asn peptide 21j was 6.5-7.4. But for the P1-Asp peptide 21e (which has the C-terminal DSL tripeptide), the optimum pH was 4.0-4.5.
It is worth noting that, at pH 7.4, VyPAL2 processed peptide 21j for cyclization at a rate that is >1000 folds faster than processing peptide 21e (FIG. 10). This enormous difference of reactivity essentially established the orthogonality for ligation at Asn in the presence of aspartyl bonds.

butelase-1 = assay: Butelase-1-catalyzed peptide cyclization (substrate screen, pH scan, kinetics); type: biochemical; details: for Km / kcat: Butelase-1, cyclization
Method: as §1, §2, §3, §4, §5
(§6) A pH scan experiment with the other two ligases: butelase-1 and OaAEP1 b, for their cyclase activity on 21e and 21j was also conducted. […] In fact, the difference in reaction efficiency between 21j and 21e was about 950 times at pH 7.4 (FIG. 10). […] This makes VyPAL2 a more efficient ligase than butelase-1 for Asp-mediated protein modification.

OaAEP1b = assay: OaAEP1b-catalyzed peptide cyclization (substrate screen, pH scan, kinetics); type: biochemical; details: for Km / kcat: cyclization
Method: as §1, §2, §3, §4, §5, §6
It seems that the microenvironment within the 51 pocket of OaAEP1 b has a unique ability to maintain the γCOOH of P1-Asp in the protonated form. However, for OaAEP1b-catalyzed cyclization, the difference in reactivity between 21j and 21e at pH 4.0-7.4 was not very high. The biggest difference was 9.5 folds at pH 7.4. […]

[1] = tested on: EGFR-overexpressing A431 cells; assay: Fluorescence microscopy cell binding/staining, A431; type: cell-based; details: A431, 30-min treatment
Method: Imaging and binding study of 12 on EGFR-overexpressing A431 cells.
A) Fluorescent microscopy analysis of MCF-7 cells after treatment with 20, DOX and blank at room temperature for 30 min. B) Fluorescent microscopy analysis of A431 cells after treatment with 20, DOX and blank at room temperature for 30 min. For cell staining experiments in A) and B), nucleus was stained with 700 nM of DAPI; 10 μM DOX and 2 μM 20 were used respectively. Scal bar=50 μm. […] Microscopy analysis of cells treated with 20. […] Scal bar=100 μm.
Confocal analysis of MCF-7 and A431 cells treated with affibody 48. Fluorescent microscopy analysis of MCF-7 and A431 cells after treatment with blank, Dox, 47 and 48 for 30 min. […]
MCF-7 and A431 cells cultured in 24 well plates were washed with PBS for 3 times. […] After this, the cells were washed with PBS for 3 times and subjected to imaging analysis using Inverted Fluorescence Microscope (Olympus Life Science #IX71). […] Likewise, “Red” channel (Filter Cube: 550 nm) was used to obtain the doxorubicin fluorescence and “Green” channel (Filter Cube: 450 nm) for fluorescein.
To study the activities of the dually labeled product 12, its binding towards EGFR-overexpressing A431 cells was analyzed.
The intrinsic fluorescence of doxorubicin serves as an imaging tool to visualize the binding of 20 to the cells (FIG. 8A, 8B). […]

MCF-7 cells [2] = assay: Fluorescence microscopy cell binding/staining, MCF-7; type: cell-based; details: MCF-7, 30-min treatment
Method: A) Fluorescent microscopy analysis of MCF-7 cells after treatment with 20, DOX and blank at room temperature for 30 min. […] For cell staining experiments in A) and B), nucleus was stained with 700 nM of DAPI; 10 μM DOX and 2 μM 20 were used respectively. […] Microscopy analysis of cells treated with 20.
Confocal analysis of MCF-7 and A431 cells treated with affibody 48. Fluorescent microscopy analysis of MCF-7 and A431 cells after treatment with blank, Dox, 47 and 48 for 30 min. For cell staining experiments, cells were fixed with 4% formaldehyde and permeabilized with 0.2% tritonX-100. The cell nucleus was stained with 1 μM of DAPI. Dox and protein 47, 48 diluted in PBS were all added in 10 μM. All the staining experiments were performed for 30 min at room temperature; Scale bar=50 μm.
Peptides or proteins in complete medium were applied to the cells and incubated for 30 min at 37° C. Washing was done 3 times with PBS and cells were subsequently subjected to microscopy analysis.
Cell staining and imaging. MCF-7 and A431 cells cultured in 24 well plates were washed with PBS for 3 times. […] After this, the cells were washed with PBS for 3 times and subjected to imaging analysis using Inverted Fluorescence Microscope (Olympus Life Science #IX71). […] Likewise, “Red” channel (Filter Cube: 550 nm) was used to obtain the doxorubicin fluorescence and “Green” channel (Filter Cube: 450 nm) for fluorescein. […]

A431 cells = assay: MTT cell viability assay, A431; type: cell-based
Method: (§7) Cytotoxicity study of 12. […] Cells were treated either with phosphate buffer (as negative control) 11 or 12 for 72 h and then subjected to microscopy analysis after washing 3 times with PBS; C) IC50 of MCF-7 and A 431 cells. Cells were both treated with 12 for 84 h and then MTT based viability test was performed to acquire the optical absorbance value to allow calculating the corresponding IC50.
(§8) Cell viability assay. MTT assays were carried out following recommended protocols from Sigma-Aldrich (Cat. No. 11465001001). Cells were first seeded in a 96-well tissue culture plate with 100 μl medium to grow until the confluency reached 40-60% of the plates surface. Peptides and proteins were added and incubated for 84 h, followed by adding 10 μl of MTT I to each well and further incubated for approximately 4 h. After this, MTT II was added and incubated at 37° C. for overnight to solubilize the purple crystals. Spectrophotometrical absorbance measurement of the samples was carried out by using a microplate reader (Biotek, citation 5) at the wavelength of 575 nm and the reference wavelength was 670 nm.
(§9) An MTT assay was performed to determine whether 12 had any effects on the two cell lines, the EGFR-overexpressing A431 cells and the MCF-7 cells which have a low EGFR expression level [54]. Both cell lines were treated with 12 for 84 h and then subjected to MTT analysis.
(§10) Next, MTT assay was conducted to determine the IC50.
(§11) Bright Field Microscopy analysis and MTT assay were performed to determine the inhibitory effects of 48 on MCF-7 and A431 cell lines. […] Next, MTT assay was performed to determine the IC50.

MCF-7 cells [3] = assay: MTT cell viability assay, MCF-7; type: cell-based
Method: as §7, §8, §9, §10, §11

Water solubility = type: physicochemical
[4] = biological target: T1, Peptide 21a (SEQ ID NO:15), GISTKSIPPISYRDGL
T1 chain: GISTKSIPPISYRDGL

[5] = biological target: T2, Peptide 21j (SEQ ID NO:24), GISTKSIPPISYRNGL
T2 chain: GISTKSIPPISYRNGL

[6] = cyclization of a model peptide; cited from earlier work

butelase-1, sequence (as listed by the source): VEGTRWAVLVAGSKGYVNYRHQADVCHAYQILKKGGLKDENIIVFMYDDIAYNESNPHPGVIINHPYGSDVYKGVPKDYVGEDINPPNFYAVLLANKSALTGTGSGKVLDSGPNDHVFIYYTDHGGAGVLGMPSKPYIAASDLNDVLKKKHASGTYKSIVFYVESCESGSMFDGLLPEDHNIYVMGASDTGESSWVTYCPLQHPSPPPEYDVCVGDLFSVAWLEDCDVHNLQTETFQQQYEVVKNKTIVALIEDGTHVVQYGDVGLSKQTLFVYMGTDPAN

GISTKSIPPISYRNGL (GISTKSIPPISYRNGL-NH2) [Peptide 21j]
optimum pH for cyclization (VyPAL2; 25 nM VyPAL2, pH range 4.0 to 7.4, 5 μM 21e or 50 μM 21j): 6.5-7.4
Km (VyPAL2; VyPAL2, cyclization, pH 4.5): 28.4 ± 4.1 µM
kcat (VyPAL2; VyPAL2, cyclization, pH 4.5): 1.9 ± 0.18 s⁻¹
Km (VyPAL2; VyPAL2, cyclization, pH 7.4): 25.8 ± 1.7 µM
Vmax (VyPAL2; VyPAL2, cyclization, pH 7.4): 5.633 µM/min
kcat (VyPAL2; VyPAL2, cyclization, pH 7.4): 5.5 ± 0.4 s⁻¹
fold difference, cyclization rate of 21j versus 21e (VyPAL2; VyPAL2, pH 7.4): > 1000 folds
Km (butelase-1; pH 4.5): 12.7 ± 2.1 µM
kcat (butelase-1; pH 4.5): 0.6 ± 0.05 s⁻¹
Km (butelase-1; pH 7.4): 13.5 ± 1.5 µM
kcat (butelase-1; pH 7.4): 9.4 ± 0.3 s⁻¹
difference in reaction efficiency between 21j and 21e (butelase-1; butelase-1, pH 7.4): about 950 times
Km (OaAEP1b; pH 7.0): 25.3 ± 2.5 µM
kcat (OaAEP1b; pH 7.0): 5.5 ± 0.3 s⁻¹
difference in reactivity between 21j and 21e (biggest) (OaAEP1b; pH 7.4): 9.5 folds

COc1cccc2c1C(=O)c1c(O)c3c(c(O)c1C2=O)C[C@@](O)(C(=O)CO)C[C@@H]3O[C@H]1C[C@H](N)[C@H](O)[C@H](C)O1 [Dox, doxorubicin]
cell staining (confocal) ([1]; 10 μM): stained
cell staining ([1]; 2 μM 20, 10 μM DOX): stained
cell staining (confocal) (MCF-7 cells [2]; 10 μM): stained
cell staining (MCF-7 cells [2]; 2 μM 20, 10 μM DOX): stained
IC50 (A431 cells; Homo sapiens, A-431, A431, 36 h, MTT, read-out: IC50): 1.3 ± 0.04 µM
IC50 (A431 cells; Homo sapiens, A-431, A431, 96 h, MTT, read-out: IC50): 1.22 ± 0.15 µM
IC50 (MCF-7 cells [3]; Homo sapiens, MCF7, MCF-7, 36 h, MTT, read-out: IC50): 1000 ± 20 nM
IC50 (MCF-7 cells [3]; Homo sapiens, MCF7, MCF-7, 96 h, MTT, read-out: IC50): 1600 ± 230 nM
water solubility (Water solubility): poorly soluble in water

GISTKSIPPISYRDGL (GISTKSIPPISYRDGL-NH2) [Peptide 21a]
Km (OaAEP1b; pH 5.5): 35.1 ± 5.9 µM
kcat (OaAEP1b; pH 5.5): 5.9 ± 0.7 s⁻¹

CC[C@H](C)[C@H](NC(=O)CN)C(=O)NCC(=O)NCC(=O)N[C@@H](Cc1ccccc1)C(=O)N[C@@H](CCCCN)C(=O)NCC(=O)NCC(=O)N[C@H](CCCCN)C(=O)N[C@H](CC(C)C)C(=O)N[C@H](C)C(=O)N[C@H](CCCCN)C(=O)N[C@H](CC(C)C)C(=O)N[C@H](C)C(=O)N[C@H](CCCCN)C(=O)N[C@H](CCCCN)C(=O)N[C@H](CC(C)C)C(=O)N[C@H](C)C(=O)N[C@H](CCCCN)C(=O)N[C@H](CC(C)C)C(=O)N[C@H](C)C(=O)N[C@H](CCCCN)C(N)=O [Peptide 11] (HELM PEPTIDE1{G.I.G.G.F.K.G.G.[dK].[dL].[dA].[dK].[dL].[dA].[dK].[dK].[dL].[dA].[dK].[dL].[dA].[dK].[am]}$$$$V2.0; N-terminus assumed)
IC50 (A431 cells; 84 h): ~1300 µM
IC50 (MCF-7 cells [3]; 84 h): ~480000 nM

B1: OaAEP1b (SEQ ID NO:44) (protein)
chain: SVGTRWAVLIAGSKGYANYRHQAGVCHAYQILKRGGLKDENIVVFMYDDIAYNESNPRPGVIINSPHGSDVYAGVPKDYTGEEVNAKNFLAAILGNKSAITGGSGKVVDSGPNDHIFIYYTDHGAAGVIGMPSKPYLYADELNDALKKKHASGTYKSLVFYLEACESGSMFEGILPEDLNIYALTSTNTTESSWAYYCPAQENPPPPEYNVCLGDLFSVAWLEDSDVQNSWYETLNQQYHHVDKRISHASHATQYGNLKLGEEGLFVYMGSNPANDNYTSLDGNALTPSSIVVNQRDAD
Km, cyclization at pH 5.5 [4]: 35.1 µM
kcat, cyclization at pH 5.5 [4]: 5.9 s⁻¹
kcat/Km, cyclization at pH 5.5 [4]: 172000 ± 9250 M^-1s^-1
Km, cyclization at pH 7.0 [5]: 25.3 µM
kcat, cyclization at pH 7.0 [5]: 5.5 s⁻¹
kcat/Km, cyclization at pH 7.0 [5]: 211000 ± 8260 M^-1s^-1

B2: VyPAL2: plant legumain from the Viola Yedoensis family, highly active peptidyl asparaginyl ligase (SEQ ID NO:1) (protein)
chain: DSIGTRWAVLIAGSKGYHNYRHQADVCHMYQILRKGGVKDENIIVFMYDDIAYNESNPFPGIIINKPGGENVYKGVPKDYTGEDINNVNFLAAILGNKSAIIGGSGKVLDTSPNDHIFIYYADHGAPGKIGMPSKPYLYADDLVDTLKQKAATGTYKSMVFYVEACNAGSMFEGLLPEGTNIYAMAASNSTEGSWITYCPGTPDFPPEFDVCLGDLWSITFLEDCDAHNLRTETVHQQFELVKKKIAYASTVSQYGDIPISKDSLSVYM
modifications: VyPAL2 core domain
catalytic efficiency [6]: 274,325 M^−1 s^−1
